Experimental data reported in ChEMBL document CHEMBL1143857, “(Phenylpiperazinyl)cyclohexylureas: discovery of alpha1a/1d-selective adrenergic receptor antagonists for the treatment of benign prostatic hyperplasia/lower urinary tract symptoms (BPH/LUTS)” (Bioorg Med Chem Lett, 2008).

Experiments:
[1] = molecular target: T1, Alpha-1B adrenergic receptor (Homo sapiens, UniProt P35368); assay: Displacement of [125I]HEAT from human recombinant adrenergic Alpha-1B receptor
T1 sequence (P35368 whole entry): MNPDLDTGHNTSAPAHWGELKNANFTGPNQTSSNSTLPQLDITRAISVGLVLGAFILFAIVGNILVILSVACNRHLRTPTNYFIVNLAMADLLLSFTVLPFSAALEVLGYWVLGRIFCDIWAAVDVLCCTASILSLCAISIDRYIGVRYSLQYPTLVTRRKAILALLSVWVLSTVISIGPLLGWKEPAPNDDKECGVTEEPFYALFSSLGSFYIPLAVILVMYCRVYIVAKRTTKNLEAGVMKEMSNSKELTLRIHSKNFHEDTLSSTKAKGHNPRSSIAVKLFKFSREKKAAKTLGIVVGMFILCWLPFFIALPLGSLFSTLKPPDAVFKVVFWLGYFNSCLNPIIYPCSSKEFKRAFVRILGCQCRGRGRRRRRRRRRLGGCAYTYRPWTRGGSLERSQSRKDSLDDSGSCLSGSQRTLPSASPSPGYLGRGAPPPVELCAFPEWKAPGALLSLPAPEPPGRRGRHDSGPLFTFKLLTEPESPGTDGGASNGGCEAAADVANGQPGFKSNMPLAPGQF

[2] = molecular target: T2, Alpha-1A adrenergic receptor (Homo sapiens, UniProt P35348); assay: Displacement of [125I]HEAT from human recombinant adrenergic alpha1A receptor
T2 sequence (P35348 whole entry): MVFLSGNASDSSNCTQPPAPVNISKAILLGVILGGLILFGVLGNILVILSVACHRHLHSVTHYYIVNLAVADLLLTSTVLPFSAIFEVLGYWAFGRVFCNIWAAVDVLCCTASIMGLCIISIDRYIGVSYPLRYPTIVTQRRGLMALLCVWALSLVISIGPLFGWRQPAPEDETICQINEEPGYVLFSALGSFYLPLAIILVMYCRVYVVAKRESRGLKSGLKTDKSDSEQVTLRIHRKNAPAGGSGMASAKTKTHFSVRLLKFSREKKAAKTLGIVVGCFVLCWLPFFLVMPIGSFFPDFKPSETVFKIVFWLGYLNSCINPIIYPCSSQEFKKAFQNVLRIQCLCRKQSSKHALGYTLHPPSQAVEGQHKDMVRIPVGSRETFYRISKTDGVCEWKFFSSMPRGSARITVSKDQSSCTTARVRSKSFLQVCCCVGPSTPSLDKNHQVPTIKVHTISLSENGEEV

D(2) dopamine receptor = D(2) dopamine receptor (Homo sapiens, UniProt P14416); assay: Displacement of [125I]spiperone from human recombinant dopamine D2 receptor
D(2) dopamine receptor, sequence (P14416 whole entry): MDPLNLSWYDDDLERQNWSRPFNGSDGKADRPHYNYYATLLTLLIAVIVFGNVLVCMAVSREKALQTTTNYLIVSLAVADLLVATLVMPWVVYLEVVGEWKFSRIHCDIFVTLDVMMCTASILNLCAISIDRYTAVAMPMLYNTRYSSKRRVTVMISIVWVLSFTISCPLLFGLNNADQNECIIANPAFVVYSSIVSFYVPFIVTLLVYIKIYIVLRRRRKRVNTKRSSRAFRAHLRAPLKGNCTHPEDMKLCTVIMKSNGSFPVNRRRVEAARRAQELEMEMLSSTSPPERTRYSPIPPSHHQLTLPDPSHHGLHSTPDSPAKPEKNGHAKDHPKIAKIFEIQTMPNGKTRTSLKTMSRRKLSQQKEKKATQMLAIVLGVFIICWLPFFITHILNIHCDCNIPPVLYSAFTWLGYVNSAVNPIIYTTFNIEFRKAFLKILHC

Homo sapiens = species: Homo sapiens; assay: Selectivity for human alpha1A receptor over human Alpha-1D receptor

Structure (SMILES) | Ki [1] | Ki [2] | Ki (D(2) dopamine receptor) | Ratio Ki (Homo sapiens)
CC(C)Oc1ccccc1N1CCN(C2CCC(NC(=O)Nc3ccccc3Cl)CC2)CC1 (cis isomer) | 373 nM | 48 nM | 878 nM | –
CC(C)Oc1ccccc1N1CCN(C2CCC(NC(=O)Nc3ccc(F)cc3F)CC2)CC1 (cis isomer) | 475 nM | 14 nM | 35.5 nM | –
CC(C)Oc1ccccc1N1CCN(C2CCC(NC(=O)Nc3ccc(F)c(F)c3)CC2)CC1 (cis isomer) | 963 nM | 51 nM | 127 nM | –
CC(C)Oc1ccccc1N1CCN(C2CCC(NC(=O)Nc3cccc(Cl)c3)CC2)CC1 (stereo in doubt; trans) | – | 5.1 nM | 84 nM | –
CC(C)Oc1ccccc1N1CCN(C2CCC(NC(=O)Nc3cccc(Cl)c3)CC2)CC1 (stereo in doubt; cis) | – | 22 nM | 108 nM | –
CC(C)Oc1ccccc1N1CCN(C2CCC(NC(=O)Nc3ccccc3Cl)CC2)CC1 (stereo in doubt) [listing 1 of 2 here] | 39 nM | 11 nM | 33 nM | –
CC(C)Oc1ccccc1N1CCN(C2CCC(NC(=O)Nc3c(Cl)cccc3Cl)CC2)CC1 (stereo in doubt; trans) | – | 6.2 nM | 4.7 nM | –
CC(C)Oc1ccccc1N1CCN(C2CCC(NC(=O)Nc3ccc(F)cc3F)CC2)CC1 (trans isomer) | 76 nM | 3.1 nM | 0.69 nM | –
CC(C)Oc1ccccc1N1CCN(C2CCC(NC(=O)Nc3cc(F)ccc3F)CC2)CC1 (stereo in doubt) [listing 1 of 2 here] | 36.4 nM | 1.7 nM | 0.46 nM | –
COc1ccccc1NC(=O)NC1CCC(N2CCN(c3ccccc3OC(C)C)CC2)CC1 (stereo in doubt; cis) | 223 nM | 155 nM | 390 nM | –
COc1ccc(NC(=O)NC2CCC(N3CCN(c4ccccc4OC(C)C)CC3)CC2)c(OC)c1 (stereo in doubt; cis) | – | 110 nM | 288 nM | –
COc1ccc(NC(=O)NC2CCC(N3CCN(c4ccccc4OC(C)C)CC3)CC2)c(OC)c1 (stereo in doubt; trans) | – | 74 nM | 892 nM | –
CC(C)Oc1ccccc1N1CCN(C2CCC(NC(=O)Nc3c(Cl)cc(Cl)cc3Cl)CC2)CC1 (trans isomer) [listing 1 of 2 here] | 112 nM | 6.5 nM | 6.5 nM | –
CC(C)Oc1ccccc1N1CCN(C2CCC(NC(=O)Nc3c(F)cccc3F)CC2)CC1 (stereo in doubt; cis) | 299 nM | 52 nM | 22 nM | –
CC(C)Oc1ccccc1N1CCN(C2CCC(NC(=O)Nc3c(Cl)cccc3Cl)CC2)CC1 (stereo in doubt; cis) | – | 33 nM | 55 nM | –
CC(C)Oc1ccccc1N1CCN(C2CCC(NC(=O)Nc3ccc(F)c(F)c3)CC2)CC1 (stereo in doubt) | 60 nM | 3.6 nM | 54 nM | –
CC(C)Oc1ccccc1N1CCN(C2CCC(NC(=O)Nc3cc(F)ccc3F)CC2)CC1 (stereo in doubt) [listing 2 of 2 here] | – | – | – | 4
COc1ccccc1NC(=O)NC1CCC(N2CCN(c3ccccc3OC(C)C)CC2)CC1 (stereo in doubt; trans) | 107 nM | 38 nM | 921 nM | –
CC(C)Oc1ccccc1N1CCN(C2CCC(NC(=O)Nc3c(Cl)cc(Cl)cc3Cl)CC2)CC1 (stereo in doubt) | 483 nM | 51 nM | 103 nM | –
CC(C)Oc1ccccc1N1CCN(C2CCC(NC(=O)Nc3c(Cl)cc(Cl)cc3Cl)CC2)CC1 (trans isomer) [listing 2 of 2 here] | – | – | – | 4
COc1ccc(Cl)cc1NC(=O)NC1CCC(N2CCN(c3ccccc3OC(C)C)CC2)CC1 (trans isomer) | – | 34 nM | 1.2 nM | –
CC(C)Oc1ccccc1N1CCN(C2CCC(NC(=O)NCc3cccc(F)c3)CC2)CC1 (stereo in doubt; cis) | 706 nM | 82 nM | 183 nM | –
CC(C)Oc1ccccc1N1CCN(C2CCC(NC(=O)NCc3cccc(F)c3)CC2)CC1 (stereo in doubt; trans) [listing 1 of 2 here] | 69 nM | 11 nM | 120 nM | –
CC(C)Oc1ccccc1N1CCN(C2CCC(NC(=O)Nc3cc(F)ccc3F)CC2)CC1 (cis isomer) | 259 nM | 26 nM | 199 nM | –
COc1ccc(Cl)cc1NC(=O)NC1CCC(N2CCN(c3ccccc3OC(C)C)CC2)CC1 (cis isomer) | – | 101 nM | 99 nM | –
CC(C)Oc1ccccc1N1CCN(C2CCC(NC(=O)NCc3cccc(F)c3)CC2)CC1 (stereo in doubt; trans) [listing 2 of 2 here] | – | – | – | 4
CC(C)Oc1ccccc1N1CCN(C2CCC(NC(=O)Nc3ccccc3Cl)CC2)CC1 (stereo in doubt) [listing 2 of 2 here] | – | – | – | 4
CC(C)Oc1ccccc1N1CCN(C2CCC(NC(=O)Nc3c(F)cccc3F)CC2)CC1 (stereo in doubt; trans) | 36 nM | 5.3 nM | 2.4 nM | –
